Laboratory results reported in patent publication US6900193B1, “Structural modification of 19-norprogesterone I: 17-α-substituted-11-β-substituted-4-aryl and 21-substituted 19-norpregnadienedione as new antiprogestational agents” (The United States of America as represented by the …, priority 1996, dated 2005).

What was measured:
[1] = target: T1, glucocorticoid receptor (estrogen-primed rabbit thymus) (Oryctolagus cuniculus, UniProt P59667); assay: Relative binding affinity, glucocorticoid receptor; conditions: for RELATIVE BINDING AFFINITY Glucocorticoid / BINDING AFFINITY Glucocortic: estrogen-primed rabbit thymus, dexamethasone = 100%; for BINDING AFFINITY Glucocortic: Table 2
T1 construct: preparation of cytosols for the progesterone and glucocorticoid receptor assays; from tissue; host or cells: thymus of estradiol-primed immature female New Zealand White rabbits (cytosol)
T1 sequence (P59667 1-772): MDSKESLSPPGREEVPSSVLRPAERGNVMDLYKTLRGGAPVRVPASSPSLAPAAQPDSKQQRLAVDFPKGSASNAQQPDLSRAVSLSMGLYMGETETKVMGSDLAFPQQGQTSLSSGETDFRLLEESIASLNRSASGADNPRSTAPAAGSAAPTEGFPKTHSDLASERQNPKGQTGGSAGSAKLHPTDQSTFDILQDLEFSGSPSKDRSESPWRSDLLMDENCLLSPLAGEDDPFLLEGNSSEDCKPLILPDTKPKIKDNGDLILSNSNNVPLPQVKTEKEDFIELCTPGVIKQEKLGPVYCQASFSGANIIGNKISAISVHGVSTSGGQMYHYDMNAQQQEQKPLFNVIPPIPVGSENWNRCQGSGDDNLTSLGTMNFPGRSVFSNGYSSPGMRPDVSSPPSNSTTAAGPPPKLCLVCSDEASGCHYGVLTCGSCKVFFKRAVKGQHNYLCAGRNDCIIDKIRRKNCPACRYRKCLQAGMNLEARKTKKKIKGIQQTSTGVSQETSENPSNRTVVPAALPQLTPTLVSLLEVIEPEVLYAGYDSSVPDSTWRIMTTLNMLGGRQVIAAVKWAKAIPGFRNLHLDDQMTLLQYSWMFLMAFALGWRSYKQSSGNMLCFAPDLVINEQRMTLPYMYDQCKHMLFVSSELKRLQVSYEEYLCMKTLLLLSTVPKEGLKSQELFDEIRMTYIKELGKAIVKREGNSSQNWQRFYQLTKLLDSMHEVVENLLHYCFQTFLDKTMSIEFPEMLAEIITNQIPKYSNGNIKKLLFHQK
Protocol: (§1) Relative Binding Affinities for the Progesterone and Glucocorticoid Receptors
(§2) Uteri and thymus glands were obtained from estradiol-primed immature female rabbits of the New Zealand White strain for preparation of cytosols for the progesterone and glucocorticoid receptor assays, respectively. Tissues were excised and immediately placed in ice cold TEGDM buffer (10 mM Tris, pH 7.4; 1.5 mM EDTA; 10% glycerol vol/vol/; 1 mM dithiothreitol [DTT]; and 20 mM sodium molybdate). The tissues were dissected free of connective tissue and fat, weighed and minced finely. Minced tissues were homogenized in 3 volumes TEGDM/gm with four 10 second bursts of a VirTis Cyclone set at half maximum speed with a 30 second cooling period (in ice) between bursts. Homogenates were centrifuged at 109,663 g at 4° C. for 1 hour to yield the soluble cytosol fiction. Aliquots of cytosol were snap frozen and stored at −75° C.
(§3) All binding assays were carried out at 2-6° C. for 16-18 hours. The following radioactive ligands were used: [1,2-^3H(N)]-progesterone (50.0 Ci/mmole) for the progesterone receptor (PR). […] For the progesterone receptor RBA assays 0.02 ml uterine cytosol or TEDGM buffer, 0.05 ml of various concentrations of test compounds or progesterone, 0.13 ml TEGDM buffer and 0.05 ml [^3H]-progesterone were added to duplicate tubes. For the glucocorticoid receptor RBA assays 0.1 ml thymus cytosol or TEDGM buffer, 0.05 ml of various concentrations of test compounds or dexamethasone, 0.05 ml TEGDM buffer and 0.05 ml [3H]-dexamethasone were added to duplicate tubes. For the estrogen receptor RBA assays 0.05 ml uterine cytosol, 0.1 ml TEGDM buffer, 0.05 ml of various concentrations of test compounds or estradiol and 0.05 ml [^3H]-estradiol were added to duplicate tubes. The concentrations of the test compounds, progesterone, dexamethasone and estradiol ranged from 0.05 to 100 nM and the concentrations of the competitors ranged from 0.5 to 500 nM. Total binding was measured at radioligand concentrations of 3.5 nM and nonspecific binding was measured in the presence of a 200-fold excess of unlabeled progesterone (PR), dexamethasone (GR) or diethylstilbestrol (ER), respectively.
(§4) In all incubations bound and free ligand were separated using dextra-coated charcoal (DCC). A 0.1 ml aliquot of DCC (0.5% charcoal/0.05% Dextran T-70) was added to each tube. The tubes were vortexed and incubated on ice for 10 minutes. Five-tenths ml TEG buffer (without DTT or molybdate) was then added to all tubes to improve supernatant recovery following centrifugation. The charcoal was pelleted by centrifugation at 2,100 g for 15 minutes at 4° C. The supernatants containing the [^3H]-steroid receptor complexes were decanted into vials containing 4 ml Optifluor (Packard Instrument Co.), vortexed, equilibrated in a liquid scintillation counter for 30 minutes and then counted for 2 minutes. This provided the quantity of receptor bound [^3H]-steroid at each competitor concentration.

[2] = test system: progesterone-induced endometrial proliferation; assay: AntiMcGinty test; format: in vivo, rabbit; conditions: for ANTIPROGESTATIONAL Anti-McGinty: relative potency, CDB-2914 = 100 (assigned), intraluminal, rabbit
Protocol: AntiMcGinty Test (McGinty, et al., Endocrinology, 24:829-832 (1939))
Immature female rabbits of the New Zealand White breed (approx. 1 kg body weight) were maintained under standard laboratory conditions and received a subcutaneous injection of 5 μg estradiol in 10% ethanol/sesame oil daily for 6 consecutive days. Twenty-four hours after the last injection of estradiol (day 7) animals underwent sterile abdominal surgery to ligate a 3-4 cm segment of both uterine horns. The experimental compound in appropriate solvent (usually 10% ethanol/sesame oil) was injected intraluminally into the ligated segment of one uterine horn and the vehicle alone into the ligated segment of the contralateral horn. Injection volume was limited to 0.1 ml, and care was taken to prevent leakage. A stimulating dose of progesterone (0.8 mg/day) was administered subcutaneously to each rabbit daily for the next three days (days 7, 8 and 9) for the purpose of inducing endometrial proliferation. All animals were sacrificed on day 10 when a segment central to the ligatures was removed and fixed in 10% neutral buffered formalin and submitted for histological processing. Five micron sections stained with hematoxylin and eosin (H&E) were evaluated microscopically for the degree of endometrial glandular proliferation according to the method of McPhail (McPhail, J. Physiol., 83:145 (1934). The percent inhibition of endometrial proliferation for each rabbit was calculated and the mean of the group of five animals recorded.

[3] = target: T2, progesterone receptor (estrogen-primed rabbit uterus) (Oryctolagus cuniculus, UniProt P06186); assay: Relative binding affinity, progesterone receptor; conditions: for RELATIVE BINDING AFFINITY Progesterone / BINDING AFFINITY Progester: estrogen-primed rabbit uterus, progesterone = 100%; for binding affinities compared with the standard, compound 69B: progesterone receptor implied (rabbit or human isoform A not specified); for BINDING AFFINITY Progester: Table 2
T2 construct: preparation of cytosols for the progesterone and glucocorticoid receptor assays; from tissue; host or cells: uterus of estradiol-primed immature female New Zealand White rabbits (cytosol)
T2 sequence (P06186 1-930): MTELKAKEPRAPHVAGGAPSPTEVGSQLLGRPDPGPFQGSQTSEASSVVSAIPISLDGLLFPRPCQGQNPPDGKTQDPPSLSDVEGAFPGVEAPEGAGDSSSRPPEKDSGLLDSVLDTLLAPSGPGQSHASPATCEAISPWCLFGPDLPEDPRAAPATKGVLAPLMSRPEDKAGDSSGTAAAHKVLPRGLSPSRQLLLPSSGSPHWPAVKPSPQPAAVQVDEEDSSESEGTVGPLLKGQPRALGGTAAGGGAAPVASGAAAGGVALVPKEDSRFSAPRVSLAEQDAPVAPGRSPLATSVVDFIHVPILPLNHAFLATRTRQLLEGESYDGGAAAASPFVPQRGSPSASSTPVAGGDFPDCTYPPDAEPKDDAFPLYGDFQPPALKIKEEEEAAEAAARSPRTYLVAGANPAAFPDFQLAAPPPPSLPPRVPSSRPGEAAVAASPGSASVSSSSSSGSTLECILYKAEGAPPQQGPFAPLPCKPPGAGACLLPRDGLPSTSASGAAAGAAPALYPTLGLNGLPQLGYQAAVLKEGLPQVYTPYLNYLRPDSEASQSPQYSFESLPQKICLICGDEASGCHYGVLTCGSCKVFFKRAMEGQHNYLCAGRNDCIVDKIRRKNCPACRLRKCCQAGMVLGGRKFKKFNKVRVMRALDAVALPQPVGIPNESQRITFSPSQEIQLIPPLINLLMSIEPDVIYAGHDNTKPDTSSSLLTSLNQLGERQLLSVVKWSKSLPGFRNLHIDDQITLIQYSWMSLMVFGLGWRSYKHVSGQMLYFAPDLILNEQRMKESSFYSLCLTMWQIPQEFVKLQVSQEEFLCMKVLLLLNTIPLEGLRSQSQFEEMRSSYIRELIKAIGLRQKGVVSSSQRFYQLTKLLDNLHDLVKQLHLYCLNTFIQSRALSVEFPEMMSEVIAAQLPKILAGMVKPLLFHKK
Protocol: as §1, §2, §3, §4

[4] = test system: progesterone-induced endometrial proliferation; assay: AntiClauberg test; format: in vivo, rabbit; conditions: oral; for BIOLOGICAL ACTIVITY antiClauberg: Table 2, CDB-2914 = 100 (assigned); for antiClauberg / oral antiprogestational activity, in words: versus the standard 69B
Protocol: AntiClauberg Test (Clauberg, C., Zentr. Gynakol., 54:2757-2770 (1930)) Immature female rabbits of the New Zealand White breed (approx. 1 kg body weight) were maintained under standard laboratory conditions and received a subcutaneous injection of 5 μg estradiol in 10% ethanol/sesame oil daily for 6 consecutive days. Twenty-four hours after the last dose of estradiol (day 7) animals received progesterone by subcutaneous injection (0.8 mg/day) and the experimental compound in appropriate vehicle (usually 10% ethanol/sesame oil) orally or subcutaneously for five consecutive days. One group of rabbits received progesterone only. Twenty-four hours after the last dose all animals were sacrificed for removal of the uterus which was cleaned of all fat and connective tissue, weighed to the nearest 0.2 mg and placed in 10% neutral buffered formalin for subsequent histological processing. Five micron sections stained with hematoxylin and eosin (H&E) were evaluated microscopically for the degree of endometrial glandular proliferation according to the method of McPhail (McPhail, supra). The percent inhibition of endometrial proliferation at each dose level of the experimental compound was derived by comparison with the progesterone-stimulated animals alone.

Compound	RELATIVE BINDING AFFINITY Glucocorticoid [1]	ANTIPROGESTATIONAL Anti-McGinty [2]	RELATIVE BINDING AFFINITY Progesterone [3]	binding affinities compared with the standard, compound 69B [3]	BINDING AFFINITY Glucocortic [1]	binding affinity for the glucocorticoid receptor, in words ([1]; rabbit thymus, versus CDB-2914 (69B) where stated)	BINDING AFFINITY Progester [3]	BIOLOGICAL ACTIVITY antiClauberg [4]	antiClauberg / oral antiprogestational activity, in words [4]	antiprogestational activity compared with the lead compound / standard, in words ([2]; antiMcGinty (and antiClauberg), versus CDB-2914 (69B))	binding affinity for the progesterone receptor, in words ([3]; rabbit uterine, versus CDB-2914 (69B) where stated)
CC(=O)SCC(=O)C1(O)CCC2C3CCC4=CC(=O)CCC4=C3C(c3ccc(N(C)C)cc3)CC21C (stereo not drawn) [Compound 16]	77%	>2	6%	–	–	–	–	–	–	–	–
CCC(=O)[C@@]1(OC(C)=O)CCC2C3CCC4=CC(=O)CCC4=C3C(c3ccc(N(C)C)cc3)C[C@@]21C (stereo partly drawn) [Compound 28, 17α-acetoxy-21-methyl-11β-[4-(N,N-dimethylamino)phenyl]-19-norpregna-4,9-diene-3,20-dione]	126%	32	129%	binding affinities greater than that observed for the standard	–	–	–	–	–	–	–
CC(=O)O[C@]1(C(=O)CSC(C)=O)CC[C@H]2[C@@H]3CCC4=CC(=O)CCC4=C3[C@@H](c3ccc(N(C)C)cc3)C[C@@]21C [Compound 17, 17α-acetoxy-21-acetylthio-11β-[4-(N,N-dimethylamino)phenyl]-19-norpregna-4,9-diene-3,20-dione]	54%	65	37%	–	–	–	–	–	–	–	–
C=COCC(=O)[C@@]1(OC(C)=O)CCC2C3CCC4=CC(=O)CCC4=C3C(c3ccc(N(C)C)cc3)C[C@@]21C (stereo partly drawn) [Compound 129, 17α-Acetoxy-11β-[4-(N,N-dimethylamino)phenyl]-21-(1′-ethenyloxy)-19-norpregna-4,9-diene-3,20-dione]	–	–	–	binding affinities greater than that observed for the standard	20%	low binding affinity	155%	303	greater activity than the standard	–	–
CC(=O)O[C@]1(C(=O)CBr)CCC2C3CCC4=CC(=O)CCC4=C3C(c3ccc(N(C)C)cc3)C[C@@]21C (stereo partly drawn) [Compound 14B, 17α-acetoxy-21-bromo-11β-[4-(N,N-dimethylamino)phenyl]-19-norpregna-4,9-diene-3,20-dione]	175%	71	130%	binding affinities greater than that observed for the standard	–	–	–	–	–	did not show significant differences	did not show significant differences
CCC(=O)OCC(=O)[C@@]1(OC(C)=O)CCC2C3CCC4=CC(=O)CCC4=C3C(c3ccc(N(C)C)cc3)C[C@@]21C (stereo partly drawn) [Compound 126a, 17α-Acetoxy-11β-[4-(N,N-dimethylamino)phenyl]-21-propionyloxy-19-norpregna-4,9-diene-3,20-dione]	–	–	–	–	43%	–	95%	170	greater activity than the standard	–	–
CC(=O)C1(OC=O)CCC2C3CCC4=CC(=O)CCC4=C3C(c3ccc(N(C)C)cc3)CC21C (stereo not drawn) [Compound 69A, 17α-formyloxy-11β-[4-(N,N-dimethylamino)phenyl]-19-norpregna-4,9-diene-3,20-dione]	–	–	–	binding affinities greater than that observed for the standard	30%	–	164%	97	–	–	–
